Counter-ions that a name gives are not always drawn.
Test system: activity of 200 ng/mL of NGF (NXF promoter-driven luciferase in PC12 cells)
Experiment: Luciferase reporter assay (NXF promoter) in PC12 cells: potentiation of NGF activity
Type: cell-based, rat
Parameters: key: +: Showed relatively weak potentiation (potentiation only exhibited at 10 μM); ++: Showed potentiation; +++: Showed particularly strong potentiation (2-fold or greater potentiation of the activity of 200 ng/mL of NGF at 1 μM)
Conditions: Test Example 1, relative luciferase activity vs 200 ng/mL NGF alone, overnight (approx. 16 hours)
Method: The forward primer 5′-[…]-3′ and the reverse primer 5′-[…]-3′ were prepared as the PCR primers according to the sequence information for the NXF gene genome sequence (Accession Nos. AB054577 and NC—000085), and the PCR method was used to isolate from approximately 5 kbp upstream from the translated region of the NXF gene promoter portion to the vicinity of the transcription start site. For this, 1 μg of mouse genomic DNA (Takara) was used as the template, and the 2-step PCR reaction was carried out for 35 cycles, the conditions for which were 95° C./1 m in the denaturing step, and 68° C./8 m in the annealing and extension steps, to obtain the PCR product. The NXF promoter fragment was inserted into the SmaI site of the pGL3 Basic vector (Promega) in the upstream of luciferase gene to prepare a reporter plasmid that would express the luciferase enzyme driven by the NXF promoter.
PC12 cells (available from the ATCC) were cultured using RPMI medium (GIBCO-BRL) with 5% FCS (GIBCO-BR) and 15% horse serum (GIBCO-BRL) added, and 1 mM in sodium pyruvate (GIBCO-BRL), at 37° C. in the presence of 5% CO2. After transfection in 10^6 of these PC12 cells for 2 days with 12 μg of the above-described reporter plasmid and 1 μg of pRC/RSV vector (Invitrogen) using the Lipofectamine 2000 reagent (Invitrogen), the medium was exchanged for fresh medium containing 40 mg/L of geneticin sulfate (GIBCO), and this was cultured continuously. Culturing was continued for approximately 1 month with medium exchange of the cultured medium containing 40 mg/L of geneticin sulfate (GIBCO) every several days, with the result that multiple colonies of the obtained cells were picked up. Among these, one of the colonies that induced luciferase activity in the presence of 40 ng/mL of NGF (Wako Pure Chemicals) was selected and used for the cells to evaluate the activity of the compounds below.
These cells were set up in 96-well plates with 80% confluence, and the luciferase reporter assay was conducted using the Promega Steady Glo luciferase assay kit. The procedure was carried out overnight (approx. 16 hours) using culture medium containing the compound, and the Steady Glo substrate solution was added to the cells in half-diluted in PBS after removal of all remaining medium containing the compound. After this was allowed to stand for 30 minutes, the respective quantity of light produced was measured with a luminometer (Envision Perkin Elmer).
The activity of the compounds for evaluation was measured as the potentiation of the activity of 200 ng/mL of NGF. For the experiment control wells, the negative control well had medium containing only a final concentration of 0.1% DMSO, the positive control well had medium containing a saturation concentration of NGF. In addition, a test well was set up containing 0.1% DMSO with 200 ng/mL of NGF added corresponding to a 0 compound concentration. When its luciferase activity was taken as a standard, the relative luciferase activity could be calculated for the test wells to which the compound solution (dissolved in DMSO and prepared to have a final DMSO concentration of 0.1%) had been added in addition to the 200 ng/mL of NGF, to find the potentiation of the activity of 200 ng/mL of NGF due to that compound.

Compound | Activity (potentiation of NGF activity)
c1ccc(COCc2nc3cc(-c4nc5ccccc5s4)ccc3n2-c2ccccc2)cc1 [Ex. 1, 5-(benzothiazol-2-yl)-1-phenyl-2-(phenylmethoxy)methylbenzimidazole] | +
COCc1nc2cc(-c3nc4ccccc4s3)ccc2n1C1CCOCC1 [Ex. 6, 5-(benzothiazol-2-yl)-2-methoxymethyl-1-(tetrahydropyran-4-yl)benzimidazole] | ++
CN(C)Cc1nc2cc(-c3nc4ccccc4s3)ccc2n1C1CCOCC1 [Ex. 9, 5-(benzothiazol-2-yl)-2-(N,N-dimethylaminomethyl)-1-(tetrahydropyran-4-yl)benzimidazole] | ++
Cc1nc2cc(-c3nc4ccccc4o3)ccc2n1C1CCOCC1 [Ex. 11, 5-(benzoxazol-2-yl)-2-methyl-1-(tetrahydropyran-4-yl)benzimidazole] | ++
CN(C)Cc1nc2cc(-c3nc4ccccc4o3)ccc2n1C1CCOCC1 [Ex. 14, 5-(benzoxazol-2-yl)-2-(N,N-dimethylaminomethyl)-1-(tetrahydropyran-4-yl)benzimidazole] | +
COc1ccc(-n2c(C)nc3cc(-c4nc5ccccc5o4)ccc32)cc1 [Ex. 15, 5-(benzoxazol-2-yl)-1-(4-methoxyphenyl)-2-methylbenzimidazole] | +
Cc1nc2cc(-c3nc4ccccc4o3)ccc2n1C1CCCCC1 [Ex. 16, 5-(benzoxazol-2-yl)-1-cyclohexyl-2-methylbenzimidazole] | ++
Cc1nc2cc(-c3nc4ccccc4o3)ccc2n1Cc1ccccc1 [Ex. 17, 5-(benzoxazol-2-yl)-1-benzyl-2-methylbenzimidazole] | ++
Cc1nc2cc(-c3cc4ccccc4o3)ccc2n1C1CCOCC1 [Ex. 19, 5-(benzofuran-2-yl)-2-methyl-1-(tetrahydropyran-4-yl)benzimidazole] | ++
c1ccc(-c2nc3cc(-c4nc5ccccc5o4)ccc3n2C2CCOCC2)nc1 [Ex. 21, 5-(benzoxazol-2-yl)-2-(2-pyridyl)-1-(tetrahydropyran-4-yl)benzimidazole] | ++
c1ccc2oc(-c3ccc4c(c3)nc(C3CCCCC3)n4C3CCOCC3)nc2c1 [Ex. 23, 5-(benzoxazol-2-yl)-2-cyclohexyl-1-(tetrahydropyran-4-yl)benzimidazole] | ++
c1cncc(-c2nc3cc(-c4nc5ccccc5o4)ccc3n2C2CCOCC2)c1 [Ex. 24, 5-(benzoxazol-2-yl)-2-(3-pyridyl)-1-(tetrahydropyran-4-yl)benzimidazole] | ++
c1ccc(-c2nc3cc(-c4nc5ccccc5o4)ccc3n2C2CCOCC2)cc1 [Ex. 25, 5-(benzoxazol-2-yl)-2-phenyl-1-(tetrahydropyran-4-yl)benzimidazole] | ++
c1ccc2oc(-c3ccc4c(c3)nc(-c3ccncc3)n4C3CCOCC3)nc2c1 [Ex. 26, 5-(benzoxazol-2-yl)-2-(4-pyridyl)-1-(tetrahydropyran-4-yl)benzimidazole] | ++
FC(F)(F)c1nc2cc(-c3nc4ccccc4o3)ccc2n1C1CCOCC1 [Ex. 27, 5-(benzoxazol-2-yl)-1-(tetrahydropyran-4-yl)-2-trifluoromethylbenzimidazole] | ++
Cc1nc2cc(-c3nc4ccccc4o3)ccc2n1C(C)(C)C [Ex. 29, 5-(benzoxazol-2-yl)-2-methyl-1-tert-butylbenzimidazole] | ++
COc1ccccc1-n1c(C)nc2cc(-c3nc4ccccc4o3)ccc21 [Ex. 30, 5-(benzoxazol-2-yl)-1-(2-methoxyphenyl)-2-methylbenzimidazole] | ++
COc1cccc(-n2c(C)nc3cc(-c4nc5ccccc5o4)ccc32)c1 [Ex. 31, 5-(benzoxazol-2-yl)-1-(3-methoxyphenyl)-2-methylbenzimidazole] | ++
c1ccc(CNCc2nc3cc(-c4nc5ccccc5o4)ccc3n2C2CCOCC2)cc1 [Ex. 32, 5-(benzoxazol-2-yl)-2-benzylaminomethyl-1-(tetrahydropyran-4-yl)benzimidazole] | ++
CCOC(=O)N1CCC(n2c(C)nc3cc(-c4nc5ccccc5o4)ccc32)CC1 [Ex. 33, 5-(benzoxazol-2-yl)-1-((1-ethoxycarbonyl)piperidine-4-yl)-2-methylbenzimidazole] | ++
Cc1nc2cc(-c3nc4ccccc4o3)ccc2n1C1CCNCC1 [Ex. 35, 5-(benzoxazol-2-yl)-1-(piperidine-4-yl)-2-methylbenzimidazole] | ++
Cc1nc2cc(-c3cc4ccccc4n3C(=O)OC(C)(C)C)ccc2n1C1CCOCC1 [Ex. 37, 5-(N-t-butoxycarbonylindol-2-yl)-2-methyl-1-(tetrahydropyran-4-yl)benzimidazole] | ++
Cc1nc2cc(-c3cc4ccccc4[nH]3)ccc2n1C1CCOCC1 [Ex. 38, 5-(indol-2-yl)-1-(tetrahydropyran-4-yl)-2-methylbenzimidazole] | ++
c1ccc2oc(-c3ccc4c(c3)nc(-c3ncc[nH]3)n4C3CCOCC3)nc2c1 [Ex. 44, 5-(benzoxazol-2-yl)-2-(imidazol-2-yl)-1-(tetrahydropyran-4-yl)benzimidazole] | ++

Same assay, conditions: Test Example 4, same manner as Test Example 1, relative luciferase activity vs 200 ng/mL NGF alone

Compound | Activity (potentiation of NGF activity)
Cc1nc2cc(-c3nc4ccccc4o3)ccc2n1CCc1ccccc1 [Ex. 52, 5-(benzoxazol-2-yl)-2-methyl-1-(2-phenylethyl)benzimidazole] | ++
Cc1nc2cc(-c3nc4ccccc4o3)ccc2n1C1CC1 [Ex. 53, 5-(benzoxazol-2-yl)-2-methyl-1-cyclopropylbenzimidazole] | ++
Cc1nc2cc(-c3nc4ccccc4o3)ccc2n1CCNC(=O)OC(C)(C)C [Ex. 55, 5-(benzoxazol-2-yl)-1-(2-(tert-butoxycarbonylamino)ethyl)-2-methylbenzimidazole] | ++
Cc1nc2cc(-c3nc4ccccc4o3)ccc2n1CCN [Ex. 56, 1-(2-aminoethyl)-5-(benzoxazol-2-yl)-2-methylbenzimidazole hydrochloride] | ++
CC(C)(C)OC(=O)NCc1nc2cc(-c3nc4ccccc4o3)ccc2n1C1CCOCC1 [Ex. 58, 5-(benzoxazol-2-yl)-2-(tert-butoxycarbamidomethyl)-1-(tetrahydropyran-4-yl)benzimidazole] | ++
Cc1nc2cc(-c3nc4cc([N+](=O)[O-])ccc4o3)ccc2n1C1CCOCC1 [Ex. 60, 5-(5-nitrobenzoxazol-2-yl)-2-methyl-1-(tetrahydropyran-4-yl)benzimidazole] | ++
c1ccc(Cc2nc3cc(-c4nc5ccccc5o4)ccc3n2C2CCOCC2)cc1 [Ex. 61, 5-(benzoxazol-2-yl)-2-benzyl-1-(tetrahydropyran-4-yl)benzimidazole] | ++
C(=C\c1nc2cc(-c3nc4ccccc4o3)ccc2n1C1CCOCC1)/c1ccccc1 [Ex. 62, 5-(benzoxazol-2-yl)-2-trans-cinnam-1-(tetrahydropyran-4-yl)benzimidazole] | ++
c1ccc2oc(-c3ccc4c(c3)nc(-c3ccoc3)n4C3CCOCC3)nc2c1 [Ex. 64, 5-(benzoxazol-2-yl)-2-(furan-3-yl)-1-(tetrahydropyran-4-yl)benzimidazole] | ++
COc1ccc2oc(-c3ccc4c(c3)nc(C)n4C3CCOCC3)nc2c1 [Ex. 66, 5-(5-methoxybenzoxazol-2-yl)-2-methyl-1-(tetrahydropyran-4-yl)benzimidazole] | ++

Source: US8829035B2, “Agent for treatment or prevention of diseases associated with activity of neurotrophic factors” (Sumitomo Chemical Company, Limited, priority 2009, dated 2014)
